Assay results from patent US20090069623A1, “METHODS AND COMPOSITIONS FOR TREATMENT OR PREVENTION OF RADIATION-INDUCED FIBROSIS” (Virginia Commonwealth University Intellectual Property …, priority 2007, published 2009).

Assays:
Assay type in all cases: cell-based, human
CTGF, fibronectin [1] = assay: Western blot of HDF cells treated with TGF-β1 and simvastatin; settings: 10 ng/ml TGF-β1 plus simvastatin, three days, FIG. 10B
Protocol: (§1) Cell Culture and Treatment. Normal human fetal lung fibroblasts (HFL-1) were purchased from the American Type Culture Collection (ATCC Number: CCL-153) and cultured in Ham's F12K medium (American Type Culture Collection) supplemented with 2 mM L-glutamine adjusted to contain 1.5 g/L sodium bicarbonate and 10% fetal bovine serum. Cells were maintained in humidified 5% CO2 at 37° C. Human dermal fibroblasts (HDF), derived from the dermis of normal human adult skin, were purchased from Invitrogen, Inc. and cultured in Medium-106 (Invitrogen, Inc., Catalogue No. M-106-500) containing LSGS Kit (Invitrogen, Inc., Catalogue No. S-003-K) prior to use. […]
(§2) Harvesting Culture Media and Cell Lystates. For analysis of extracellular CTGF, fibronectin, and α-tubulin, cell culture media was collected, centrifuged to remove cellular debris, aliquoted, and frozen at −70° C. until ready for use. […]
(§3) Western blot analysis of HFL-1 whole cell proteins. […] After washing the blot, the antibodies were detected by the enhanced chemiluminescence method (PerkinElmer Life Sciences Inc.).
(§4) The separated proteins were then transferred to nitrocellulose, and Western immunoblotting was performed with antibodies specific for CTGF, fibronectin, and α-tubulin. […] As a control for protein loading, α-tubulin expression in HFL-1 cells was also determined.

CTGF, fibronectin [2] = assay: Western blot of irradiated HFL-1 cells treated with HMG-CoA inhibitors; settings: simvastatin pretreatment 6 hours, 5 Gy, three days, FIG. 8B
Protocol: For statin treatment experiments, cells were grown overnight in 35 mm plates (6-well plates were also used in some studies) to form a 75-80% confluent monolayer. The cells were then washed with PBS, and the media was changed to SFM (800 μL).
Harvesting Culture Media and Cell Lystates. For analysis of extracellular CTGF, fibronectin, and α-tubulin, cell culture media was collected, centrifuged to remove cellular debris, aliquoted, and frozen at −70° C. until ready for use. For analysis of intracellular CTGF, fibronectin, and α-tubulin, cell lysates were harvested using 200 μL of HBSST lysis buffer (HBSS containing 1 mM MgSO4, 1 mM CaCl2, 4 mM NaHCO3, 0.5% Triton X-100, protease inhibitor cocktail). Cellular debris was removed by centrifugation.
Western blot analysis of HFL-1 whole cell proteins. […] Primary antibodies for CTGF and fibronectin were diluted at 1:600 and were incubated at 4° C. overnight with shaking. Primary antibodies for α-tubulin were diluted at 1:4,000 and were incubated at 4° C. overnight with shaking. Corresponding secondary antibodies were diluted at 1:6,000 and were incubated at room temperature for 1 hour with shaking. After washing the blot, the antibodies were detected by the enhanced chemiluminescence method (PerkinElmer Life Sciences Inc.).
as §4, with “Cells were harvested, and cell lysates were separated by SDS-PAGE. The” for “The”
Cells were harvested, and cell lysates were separated by SDS-PAGE. The separated proteins were then transferred to nitrocellulose, and Western immunoblotting was performed with antibodies specific for CTGF, fibronectin, and α-tubulin. FIG. 8C is a Western blot of HFL-1 cells exposed to radiation and treated with HMG-CoA inhibitors.

CTGF, fibronectin [3] = assay: Western blot of HFL-1 cells treated with TGF-β1 and simvastatin; settings: TGF-β1 plus simvastatin, three days, FIG. 7B
Protocol: as §1, §2, §3, §4

[4] = system: CTGF, fibronectin (FN), collagen type IV (Col IV) mRNA; assay: RT-PCR of TGF-β1-induced mRNA expression in HDF cells treated with simvastatin; settings: 10 ng/ml TGF-β1 for 20 hours, FIG. 10A
Protocol: Cell Culture and Treatment. Normal human fetal lung fibroblasts (HFL-1) were purchased from the American Type Culture Collection (ATCC Number: CCL-153) and cultured in Ham's F12K medium (American Type Culture Collection) supplemented with 2 mM L-glutamine adjusted to contain 1.5 g/L sodium bicarbonate and 10% fetal bovine serum. Cells were maintained in humidified 5% CO2 at 37° C. Human dermal fibroblasts (HDF), derived from the dermis of normal human adult skin, were purchased from Invitrogen, Inc. and cultured in Medium-106 (Invitrogen, Inc., Catalogue No. M-106-500) containing LSGS Kit (Invitrogen, Inc., Catalogue No. S-003-K) prior to use. After reaching 75-80% confluence, the medium was changed to serum free medium (SFM) for irradiation with different dose 1Gy, 2.5Gy, 5Gy, 7.5Gy and 10 Gy by using ^137Se. Alternatively, cells were treated with 5 ng/ml TGF-β1 (Sigma-Aldrich, Inc., Catalogue No. T7039) to stimulate CTGF production. The cells were then kept for 3 days in humidified 5% CO2 at 37° C. and subjected to Western immunoblot.^1 ^1What are the culture conditions (e.g., media) for M12 cells used in FIG. 3?
RT-PCR analysis of CTGF, COL-IV, FN and hβ2M. […]
The ability of statins to inhibit TGF-β1-mediated induction of CTGF, fibronectin, and collagen type IV was assessed in HDF cells. […]

## CCC(C)(C)C(=O)O[C@H]1C[C@@H](C)C=C2C=C[C@H](C)[C@H](CC[C@@H]3C[C@@H](O)CC(=O)O3)[C@H]21 [simvastatin, 2,2-dimethyl-butanoic acid(1S,3R,7S,8S,8aR)-1,2,3,7,8,8a-hexahydro-3,7-dimethyl-8-[2-[(2R,4R)-tetrahydro-4-hydroxy-6-oxo-2H-pyran-2-yl]ethyl]-1-naphthalenylester]
CTGF, fibronectin [1]
  fibronectin protein expression: decrease in protein expression of fibronectin
CTGF, fibronectin [2]
  fibronectin protein expression: decrease in protein expression or fibronectin
CTGF, fibronectin [3]
  fibronectin protein expression: decrease in protein expression or fibronectin
[4]; 0.1 μM simvastatin
  CTGF, FN, and Col IV mRNA expression: reduction in CTGF, FN, and Col IV mRNA expression
[4]; increasing concentration of simvastatin
  CTGF, FN, and Col IV mRNA expression: reduction in CTGF, FN, and Col IV mRNA expression became more pronounced
